Key:
[1] = human subjects
Excerpt: FIG. 1: Plasma bioavailability of PPi after oral disodium PPi and after oral tetrasodium PPI. Results of different subjects (#) are shown, as well as AUC and AUC/mg PPi.
In this experiment PPI bioavailability was compared between tetrasodium PPi and disodium PPi in different human subjects (as indicated by # in FIG. 1).

[2] = single oral dose, PXE patient, fasting baseline 0.7 μmol/l (FIG. 2)
Excerpt: Legend indicates the dose (per kg of body weight) and time of PPi consumption.

[3] = three months after the operation; 44 mg/kg per oral once daily
Procedure: As PXE patients have an increased risk of spontaneous gastrointestinal bleeding, aspirin medication was not used preoperatively. […] With the present therapy the patients absorbs extra 0.8 mg sodium and is informed to decrease daily salt intake.
Aspirin and PPi therapy were continued unaltered.

O=P([O-])([O-])OP(=O)(O)O.[Na+].[Na+] [disodium pyrophosphate]
PPi bioavailability in plasma after oral uptake ([1]; compared with oral tetrasodium PPi (FIG. 1)): much better bioavailable | area under the curve (AUC) and calculated AUC/mg PPi of plasma PPi ([1]; oral, compared with tetrasodium PPi): higher | time plasma pyrophosphate stayed in the normal fasting range of healthy controls (0.8-1.6 μmol/l) [2]: 180 min | re-stenosis on computed tomography angiography (CTA) (one year postoperatively): without signs of re-stenosis | Walking Impairment Questionnaire (WIQ) score (one year postoperatively, baseline 0.19, 44 mg/kg per oral once daily): 0.89 | re-stenosis in the operated area on MRA (three months after the operation): no re-stenosis | safety laboratory tests [3]: normal

From patent US20220288115A1, “ORAL DISODIUM PYR[…] USE IN REDUCING CALCIFICATION” (priority 2019, published 2022)
